Source: ChEMBL document CHEMBL1201862, “PubChem BioAssay data set” (2004)
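Assay format: 96-well plates, 48-hour exposure. GI50 marks 50% less growth.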 Active and inactive are the calls of the source. Cut-off read from the data, not from the text of the source: active = GI50 up to about 1.1 µM and inactive = higher.

Legend:
Experiment in all cases: NCI anticancer screen, dose series, 48 h
[1] = tested on: M14
[2] = tested on: UO-31
[3] = tested on: SN12C
[4] = tested on: SK-MEL-28
[5] = tested on: SK-OV-3
[6] = tested on: OVCAR-8
[7] = tested on: NCI-H460
[8] = tested on: HT-29
[9] = tested on: MOLT-4
[10] = tested on: NCI-H226
[11] = tested on: BT-549
[12] = tested on: HCT-15
[13] = tested on: EKVX
[14] = tested on: NCI-H522
[15] = tested on: MDA-MB-231
[16] = tested on: UACC-257
[17] = tested on: SW-620
[18] = tested on: SF-539
[19] = tested on: HCT-116
[20] = tested on: TK-10
[21] = tested on: Hs-578T
[22] = tested on: K562
[23] = tested on: U-251
[24] = tested on: Malme-3M
[25] = tested on: CCRF-CEM
[26] = tested on: MCF7
[27] = tested on: SK-MEL-2
[28] = tested on: CAKI-1
[29] = tested on: OVCAR-5
[30] = tested on: OVCAR-3
[31] = tested on: KM12
[32] = tested on: T47D
[33] = tested on: UACC-62
[34] = tested on: HCC 2998
[35] = tested on: 786-0
[36] = tested on: A549
[37] = tested on: ACHN
[38] = tested on: MDA-N
[39] = tested on: SNB-19
[40] = tested on: NCI-H23
[41] = tested on: IGROV-1
[42] = tested on: DU-145
[43] = tested on: HL-60
[44] = tested on: SF-268
[45] = tested on: SR
[46] = tested on: OVCAR-4
[47] = tested on: PC-3
[48] = tested on: NCI/ADR-RES
[49] = tested on: A498
[50] = tested on: HOP-62
[51] = tested on: SK-MEL-5
[52] = tested on: COLO 205
[53] = tested on: SF-295
[54] = tested on: SNB-75
[55] = tested on: LOX IMVI
[56] = tested on: RXF 393
[57] = tested on: HOP-92
[58] = tested on: MDA-MB-435
[59] = tested on: RPMI-8226

Measured: GI50

Cc1cccc(C(C)O)n1 (configuration not stated)
inactive: [1] > 100 µM | [2] > 100 µM | [3] > 100 µM | [4] > 100 µM | [5] > 100 µM | [6] > 100 µM | [7] > 100 µM | [8] > 100 µM | [9] > 100 µM | [10] > 100 µM | [11] > 100 µM | [13] > 100 µM | [14] > 100 µM | [15] > 100 µM | [16] > 100 µM | [17] > 100 µM | [18] > 100 µM | [19] > 100 µM | [20] > 100 µM | [21] > 100 µM | [22] > 100 µM | [23] > 100 µM | [24] 24 µM | [25] > 100 µM | [26] > 100 µM | [27] > 100 µM | [28] > 100 µM | [29] > 100 µM | [30] > 100 µM | [31] > 100 µM | [32] > 100 µM | [33] > 100 µM | [34] > 100 µM | [35] > 100 µM | [36] > 100 µM | [37] > 100 µM | [38] > 100 µM | [39] > 100 µM | [40] > 100 µM | [41] > 100 µM | [42] > 100 µM | [43] > 100 µM | [44] > 100 µM | [45] > 100 µM | [46] > 100 µM | [47] > 100 µM | [48] > 100 µM | [49] > 100 µM | [50] > 100 µM | [51] > 100 µM | [52] > 100 µM | [53] > 100 µM | [54] > 100 µM
> 100 µM: [12]

C#CC(O)(c1nc2ccccc2s1)c1nc2ccccc2s1
20.2 µM: [12]
inactive: [1] 15.5 µM | [2] 15 µM | [3] 17.8 µM | [4] 40.7 µM | [6] 22 µM | [55] 17.8 µM | [8] 27.2 µM | [9] 28.8 µM | [11] 16.6 µM | [13] 19.3 µM | [14] 17.6 µM | [15] 15.7 µM | [16] 25.1 µM | [17] 33.7 µM | [18] 17.4 µM | [19] 16.3 µM | [56] 18.6 µM | [20] 36.6 µM | [21] 36.4 µM | [22] 45.7 µM | [23] 18.7 µM | [24] 27 µM | [25] 27.4 µM | [26] 22.2 µM | [27] 16.7 µM | [57] 16.1 µM | [28] 23.5 µM | [29] 23.6 µM | [30] 18.1 µM | [31] 29.4 µM | [58] 23.1 µM | [32] 13.8 µM | [33] 12.3 µM | [35] 18.5 µM | [36] 29 µM | [37] 23 µM | [38] 21.2 µM | [39] 36.9 µM | [40] 20.3 µM | [41] 15.2 µM | [42] 26.4 µM | [43] 21 µM | [44] 28.5 µM | [46] 25.8 µM | [47] 19 µM | [48] 26.2 µM | [49] 16.9 µM | [50] 26.2 µM | [51] 15.6 µM | [59] 21 µM | [52] 17.7 µM | [53] 24 µM
